What was measured:
[1] = test system: E12 mesencephalic precursors; assay: Dopaminergic differentiation of long-term expanded mesencephalic precursors, TH-ir cell count per well; format: cell-based, rat; conditions: for effect of antioxidants on dopaminergic cell number: FIG. 5, FIG. 6
Procedure: Ascorbic acid was obtained from SIGMA (A-1417: Lot 105H0138) and used at various concentrations ranging from 1 nM-1 mM to obtain a dose-response curve. The effect of ascorbic acid on dopaminergic differentiation of long-term expanded mesencephalic precursors was tested during early and late proliferation as well as during cell differentiation.
Briefly, E12 mesencephalic precursors were proliferated for 12-14 days in vitro with 20 ng/ml bFGF (average expansion factor 40-200 fold) followed by 4-7 days of differentiation upon bFGF withdrawal and exposure to the various differentiation agents refers to the experimental assay in general. We tested the effects of many possible differentiation agents such as NGF, BDNF, NT3, NT4/5, GDNF, SHH, FGF8, interleukin1, Neurturin, cGMP and many others.
Cells were treated with 100 uM ascorbic acid. Ascorbic acid was dissolved in PBS with 0.1% bovine serum albumin at 100 mM stock solution. It was then used in 1:1000 dilution by adding it directly into the culture medium Cells were then fixed in 0.15% picric acid/4% paraformaldehyde and stained for tyrosine-hydroxylase (PelFreeze P40101-0). The number of TH-ir cells per well were scored using a stereological counting frame.
A dose response curve of the effect of stereoisomer D-iso-ascorbic acid was established using D-iso Ascorbic acid (I-0502 SIGMA). D-iso-ascorbic acid was used with the same protocol as L-ascorbic acid regarding stock solution, concentrations and mode of application. D-iso ascorbic acid has the same anti-oxydative properties but different other biological properties than ascorbic acid.

[2] = test system: expanded and differentiated mesencephalic precursors; assay: KCl evoked dopamine release of differentiated expanded precursors, HPLC; format: cell-based, rat
Procedure: Tissue culture was prepared as described in Example 1. The growth medium of expanded precursors from 3 independent culture series was collected after 5-7 days of differentiation under serum-free conditions and immediately stabilized by adding 88 μl of 85% orthophosphoric acid and 4.4 mg of metabisulfite to each sample ml. Additional cultures of the same series were placed in 5 ml Hank's basic salt solution (HBSS) for […] at 37° C. either under basal conditions (HBSS only) or under stimulation with 56 mM KCl. 56 mM KCl was added to assay evoked release, i.e., dopamine release in response to depolarization by KCl (depolarization by KCl leads to release of synaptic vesicles in neurons). This provides a more specific test than release in HBSS where synaptic release is not directly tested.
Dopamine staining was carried out on cultures using dopamine polyclonal 1:500 (Chemicon). The cultures were fixed in 5% glutaraldehyde and 1% metabisulfite in Tris buffer and then kept in metabisulfite containing solutions prior to incubation in the secondary antibody. Dopamine was extracted by aluminum adsorption as described by Studer et al. (1996) Brain Res.Bull. 41, 143-150. […] No dopamine was detected in unconditioned control medium and HBSS.

[3] = test system: ventral mesencephalon cells of E12 rat embryos; assay: Tissue culture expansion of mesencephalic precursors with bFGF; format: cell-based; conditions: from 800×10^3 cells; 10-20 ng bFGF/ml medium daily; N=12
Procedure: Tissue was obtained from the ventral mesencephalon of E12 rat embryos (Sprague Dawley, plug day=day 0,) as described by Studer et al. in Current Protocols in Neuroscience (eds McKay, R. D. & Gerfen, C. R.) John Wiley & Sons Inc., New York, (1997).
Tissue pieces were spun in a centrifuge at 209 g for 5 minutes and mechanically triturated to a quasi single cell suspension in HBSS and counted. 5 ml of cell suspension at a concentration of 150-200×10^3 cells/ml was plated on a 10 cm culture dish containing DMEM/F12/N2 medium (Bottenstein, J. E. & Sato, G. H. Growth of a rat neuroblastoma cell line in serum-free supplemented medium. Proc.Natl.Acad.Sci.USA 76, 514-517 (1979) (modified according to Johe, K. K., Hazel, T. G., Müller, T., Dugich-Djordjevic, M. M. & McKay, R. D. G. Single factors direct the differentiation of stem cells from the fetal and adult central nervous system. Genes and Development 10, 3129-3140 (1996)) that had been previously coated with polyornithine (15 ug/ml) and fibronectin (1 ug/ml).
bFGF was added to the culture medium on a daily basis to a final concentration of 10-20 ng bFGF/ml medium. The medium was changed every other day.
Additionally, after treatment with bFGF all surviving cells were immunoreactive for the nestin intermediate filament a marker for immature neuroepithelial precursors. […]

[4] = test system: mesencephalic precursors expanded with bFGF for 11 days; conditions: dopamine 1 nM-1 mM; cAMP 1 mM; DMEM/F12/N2
[5] = test system: differentiated mesencephalic precursor culture; assay: Oxidative stress assays (lipid peroxydation, H2O2, oxidative stress marker staining); format: cell-based, rat; conditions: data not shown
Procedure: Lipid peroxydation is a colorimetric assay (OXIS BIOXYTECH® LPO-568™; Oxis International Inc.) and was used according to the specifications of the manufacturer. H2O2 assay measures the conversion of 2′,7′ dicholorofluorescin diacetate (Molecular Probes d-399) into 2′,7′ dicholorofluorescin catalyzed by H2O2. The assay was performed according to the specifications of the manufacturer. Immunohistochemistry for oxidative stress markers by the DAB-peroxidase technique was performed on cells differentiated in the presence or absence of ascorbic acid, glutathione or […] plus ebselin.

[6] = test system: bFGF expanded precursor derived TH+ neurons; assay: Dopamine release of precursor derived TH+ neurons, reverse phase HPLC with electrochemical detection; format: cell-based, rat; conditions: conditioned medium, buffer solution, buffer + 56 mM KCl; FIG. 7 and 8
Procedure: To test the biochemical function of precursor derived tyrosine hydroxylase expressing (TH+) neurons, the supernatant was tested for dopamine release using reverse phase HPLC with electrochemical detection. Dopamine levels were assessed in conditioned medium (24 hours of incubation), HBSS buffer (15 minutes), HBSS buffer +56 mM KCl. Dopamine was subsequently extracted by aluminum absorption and measured by reverse phase HPLC with electrochemical detection.

[7] = test system: expanded mesencephalic precursors differentiated as free floating reaggregates; assay: Reaggregation system (roller drum) differentiation, immunohistochemistry of reaggregates; format: cell-based, rat; conditions: for total number of TH-ir cells/sphere in serum-supplemented medium: GDNF, BDNF, NT4/5 10 ng/ml, SHH 2.5 μg/ml, data not shown
Procedure: Cells were cultured as described in Example 1 and differentiated as free floating aggregates in a medium containing 10% fetal bovine serum (FBS) and maintained in a roller drum system. The cell suspension (200,000 cells/ml) was distributed in 15 ml Falcon tubes (1 ml/tube) and placed in a roller drum (Bellco) and rotated at a speed of 1-4 revolutions per minute and a temperature of 37° C. in a dry incubator (no additional humidity) in an atmosphere containing 5% CO2.
Medium in all these experiments described in this section was Neurobasal/B27 as described above. We tested the effect of GDNF, BDNF, SHH in the presence and in the absence of 10% fetal bovine serum (always with Neurobasal/B27 medium as a “basal medium”)
After 7 days, the test tubes were removed from the roller drum and the reaggregation of the cells was examined immunohistochemistry after sectioning the cells (see below). […] Reaggregates were fixed in 4% paraformalehyde/0.15 picric acid in PBS for 30-60 minutes at room temperature, equilibrated in 30% sucrose, cut into 20 um thick sections on a freezing microtome and adhered to a gelatine precoated glass carrier according to standard histological guidelines.
The differentiation medium for reaggregate cultures consisted of Neurobasal®/2% B27® (Gibco, Life Technologies) with or without fetal bovine serum (FBS; 10%, Gibco), glial derived neurotrophic factor (GDNF; 10 ng/ml; Peprotech), brain derived neurotrophic factor (BDNF; 10 ng/ml; Peprotech), neurotrophin 4/5 (NT4/5; 10 ng/ml; Peprotech), SHH (2.5 μg/ml; kindly provided by Dr. Thomas Muller, at the Labrotory of Molecular Biology, currently at the Max Delbrueck Univ. in Berlin; SHH is now commercially avail. fro R&D).
Using standard immunohistochemical procedures known to those of skill in the art, the following antibodies were used to examine the neuronal phenotypes present in differentiated aggregates: GABA polyclonal 1:2000 (SIGMA), serotonin polyclonal 1:8000 (SIGMA), ChAT polyclonal 1:500 (Chemicon), GFAP polyclonal 1:100 (Chemicon), GalC monoclonal 1:50 (Boehringer-Mannheim),
Total graft volume was estimated using the Cavalieri's estimator as described by Gundersen et al. (1988) APIMS 96, 379-394. TH-ir cells were counted within the outlined graft area as used for volume estimation. Uniform randomly chosen sections of individual reaggregates were analyzed for the total number of TH-ir cells by means of a stereological grid (fractionator). Conventional and confocal images were obtained with Axiophot and Axiovert microscopes respectively (Zeiss). Confocal image stacks were acquired by single and dual wavelength excitation at 488 and 568 nm. […] The effect of serum and growth factors was analyzed using ANOVA and Dunnett posthoc comparisons. […]

Molecule: O=C1O[C@H]([C@H](O)CO)C(O)=C1O [D-iso ascorbic acid, D-iso-ascorbic acid]
- number of dopaminergic neurons, lower than in the ascorbic acid group ([1]; optimum concentration of 100 μM): 48%

Molecule: [Cl-].[K+] [KCl]
- increase in dopamine levels in the supernatant ([2]; 56 mM KCl in HBSS for 25 minutes vs HBSS only): 3-4 fold
- dopamine level in the supernatant, evoked release ([2]; 56 mM KCl in HBSS for 25 minutes, N=3): 572+/−145 pg dopamine/ml

Molecule: bFGF: basic fibroblast growth factor, added to proliferating medium to expand precursor cells
- cell number after 1 week of treatment with bFGF [3]: 7,417×10^3+/−1,066×10^3 cells

Molecule: NCCc1ccc(O)c(O)c1 [dopamine]
- additional effect on yield of dopaminergic neurons in combination with ascorbic acid (100 uM) [4]: no significant additional effect

Molecule: O=c1c2ccccc2[se]n1-c1ccccc1 [ebselin]
- effect of antioxidants on dopaminergic cell number [1]: none of the antioxidants tested influenced dopaminergic cell number

Molecule: CC(=O)N[C@H](CS)C(=O)O [D-acetylcystein]
- effect of antioxidants on dopaminergic cell number [1]: none of the antioxidants tested influenced dopaminergic cell number

Molecule: N[C@@H](CCC(=O)N[C@@H](CS)C(=O)NCC(=O)O)C(=O)O [glutathione]
- effect of antioxidants on dopaminergic cell number [1]: none of the antioxidants tested influenced dopaminergic cell number

Molecule: O=C1O[C@H]([C@@H](O)CO)C(O)=C1O [ascorbic acid]
- yield of dopaminergic neurons compared with other differentiation agents tested ([1]; 100 uM, 12-14 days expansion, 4-7 days differentiation): most effective agent of all agents tested
- effect on dopaminergic yield, treatment during cell differentiation (P1 diff.) ([1]; FIG. 6): acts mostly during the differentiation phase
- effect on dopaminergic yield, treatment during early expansion (Po exp.) ([1]; FIG. 6): small improvement in dopaminergic yield
- effect on dopaminergic yield, treatment during late expansion (P1 exp.) ([1]; FIG. 6): slightly negative effect
- concentration of maximal effect on TH-ir cell number (dose-response) ([1]; during cell differentiation, range 1 nM-1 mM, FIG. 5): 100 µM
- differences to control in lipid peroxydation, H2O2 levels and staining intensity for oxydative stress markers [5]: No significant differences
- dopamine levels after treatment, long-term expanded precursors (P1) [6]: significant increase
- dopamine levels after treatment, short term expanded precursors (Po) [6]: significant increase

B1: NT4/5: neurotrophin 4/5, Peprotech (protein, UniProt P34130 81-210, looked up)
Neurotrophin-4: GVSETAPASRRGELAVCDAVSGWVTDRRTAVDLRGREVEVLGEVPAAGGSPLRQYFFETRCKADNAEEGGPGAGGGGCRGVDRRHWVSECKAKQSYVRALTADAQGRVGWRWIRIDTACVCTLLSRTGRA
- total number of TH-ir cells/sphere in serum-supplemented medium [7]: did not cause a significant increase

B2: GDNF: glial derived neurotrophic factor, Peprotech (protein, UniProt P39905 78-211, looked up)
Glial cell line-derived …: SPDKQMAVLPRRERNRQAAAANPENSRGKGRRGQRGKNRGCVLTAIHLNVTDLGLGYETKEELIFRYCSGSCDAAETTYDKILKNLSRNRRLVSDKVGQACCRPIAFDDDLSFLDDNLVYHILRKHSAKRCGCI
- TH-ir cell yield under serum-free conditions ([7]; GDNF 10 ng/ml, N=8, p<0.05 vs control): 3451+/−621
- total number of TH-ir cells/sphere in serum-supplemented medium [7]: did not cause a significant increase

B3: BDNF: brain derived neurotrophic factor, Peprotech (protein, UniProt P23560 19-247, looked up)
Neurotrophic factor BDNF …: APMKEANIRGQGGLAYPGVRTHGTLESVNGPKAGSRGLTSLADTFEHVIEELLDEDQKVRPNEENNKDADLYTSRVMLSSQVPLEPPLLFLLEEYKNYLDAANMSMRVRRHSDPARRGELSVCDSISEWVTAADKKTAVDMSGGTVTVLEKVPVSKGQLKQYFYETKCNPMGYTKEGCRGIDKRHWNSQCRTTQSYVRALTMDSKKRIGWRFIRIDTSCVCTLTIKRGR
- total number of TH-ir cells/sphere in serum-supplemented medium [7]: did not cause a significant increase
